Results on 5 compounds are retold here after ChEMBL document CHEMBL4340569, “Optimization of a small-molecule Lipid II binder” (Bioorg Med Chem Lett, 2019).

The MIC is the least concentration at which growth counts as inhibited. Low values mean inhibition by little substance, high ones a need for much substance.

In one test the test system is Enterococcus faecium. Description: Antimicrobial activity against Enterococcus faecium EF1509 by broth dilution method. The format is functional.
Settings: not given
Background: Dilution methods test growth across graded concentrations, often in twofold steps.
For the compound `CC(=O)N1CCN(c2ccc(/C=C/c3cc(-c4ccc(F)cc4)cc(-c4ccc(F)cc4)[o+]3)cc2)CC1`, the MIC is above 80 µM.
For the compound `ClCCN(CCCl)c1ccc(/C=C/c2cc(-c3ccc(Br)cc3)cc(-c3ccc(Br)cc3)[o+]2)cc1`, the MIC is above 80 µM.
Still for that read-out and setting: the value for `OCCN(CCO)c1ccc(/C=C/c2cc(-c3ccc(Br)cc3)cc(-c3ccc(Br)cc3)[o+]2)cc1` was above 80 µM.
For `CN(/C=C/c1cc(-c2cccc(Br)c2)cc(-c2cccc(Br)c2)[o+]1)CCO`, the MIC is above 80 µM.
On the same count and under the same terms, the value for `CCC(=O)N1CCN(c2ccc(/C=C/c3cc(-c4cccc(Br)c4)cc(-c4cccc(Br)c4)[o+]3)cc2)CC1` was 51.4 µM.

A further test relates to Staphylococcus aureus. In words: Antimicrobial activity against Staphylococcus aureus ATCC […] by broth dilution method. Conditions: ATCC 29213. It counts as functional.
`CC(=O)N1CCN(c2ccc(/C=C/c3cc(-c4ccc(F)cc4)cc(-c4ccc(F)cc4)[o+]3)cc2)CC1`: the MIC was above 80 µM.
For `ClCCN(CCCl)c1ccc(/C=C/c2cc(-c3ccc(Br)cc3)cc(-c3ccc(Br)cc3)[o+]2)cc1`, the MIC is above 80 µM.
As for `OCCN(CCO)c1ccc(/C=C/c2cc(-c3ccc(Br)cc3)cc(-c3ccc(Br)cc3)[o+]2)cc1`, the MIC was above 80 µM.
`CN(/C=C/c1cc(-c2cccc(Br)c2)cc(-c2cccc(Br)c2)[o+]1)CCO` came in with an MIC above 80 µM.
Consider `CCC(=O)N1CCN(c2ccc(/C=C/c3cc(-c4cccc(Br)c4)cc(-c4cccc(Br)c4)[o+]3)cc2)CC1`, for which the MIC was determined as 12.8 µM. That is a double-digit micromolar value.
